Patent US10543155B2, “Compositions containing zinc salts and isothiocyanates for reduction of oral volatile sulfur compounds (VSCs)” (priority 2011, dated 2020)

Columns and labels:
[1] = in vitro headspace GC-SCD test of zinc salts against H2S; conditions: 5 ml PBS containing 1 mg H2S, 37° C. 5 min; for reduces the oral malodor produced by hydrogen sulfide (H2S): FIG. 2
Experimental: In another experiment, 5 ml of PBS solution containing 1 mg of H2S was prepared via a serial dilution in a 22 ml headspace vial for FIG. 2 below. Different amounts of zinc salts were added and mixed at 37° C. for 5 min. The headspace concentration of H2S was analyzed by GC-SCD.

[2] = zinc lactate and AITC against VSC mixture, headspace GC-SCD: H2S; conditions: 1 mg in 5 ml VSC mixture (200 ppm H2S, 40 ppm CH3SH), 37° C. 5 min, FIG. 4
Experimental: (§1) The final concentrations of H2S and CH3SH in solution were a 200 and 40 ppm, respectively. The final amount of VSC was 1.2 mg in the test vial. Although the headspace concentrations of H2S and CH3SH were well above the level found in a typical foul mouth air (200-500 parts per billion), the total amount of VSC was close to the amount presented in oral cavity. Subsequently, 5 ml of the VSC mixture was kept in a 22 ml tight screw cap headspace vial at 37° C. for 5 min. The headspace sample was injected into a GC column with an SCD detector. […] The large peak area of CH3SH reflects its volatility in the headspace compared with H2S.
(§2) Separately, 1 mg of zinc lactate, or 1 mg of allyl isothiocyanate (AITC), or combination of 1 mg Zinc lactate and 1 mg of AITC were added to each of headspace vial containing 5 ml VSC mixture and equilibrated at 37° C. for 5 min. Each headspace sample was injected into a GC column by a Combi-Pal auto-sampler. The amount of sulfur was analyzed by an Agilent SCD-355 chemoluminescent sulfide detector.

[3] = zinc lactate and AITC against VSC mixture, headspace GC-SCD: CH3SH; conditions: 1 mg in 5 ml VSC mixture (200 ppm H2S, 40 ppm CH3SH), 37° C. 5 min, FIG. 4
Experimental: as §1, §2

[4] = in vitro headspace GC-SCD test of zinc salts against methyl mercaptan; conditions: 200 ppm CH3SH in 5 ml PBS pH 7.4, 5 minutes at 37° C., FIG. 1
Experimental: For evaluation of the efficacy of various zinc salts against specific VSCs, the Applicants established an in vitro method using a headspace gas-chromatograph equipped with a sulfur detector. Thus, a total of 200 ppm of CH3SH in 5 ml of phosphate buffer solution (PBS) was prepared. The pH was maintained at 7.4. […] The headspace sample was injected into a gas chromatograph sulfur chemiluminescence detector (GC-SCD).

[5] = in vitro reduction of headspace H2S by isothiocyanates (GC-SCD); conditions: for Peak Area (headspace H2S): 200 ppm H2S in 5 ml PBS pH 7.4, 5 min 37° C.
Experimental: A stock solution of H2S was prepared by a serial dilution in PBS buffer (pH 7.4), with a final concentration of 200 ppm. Allyl isothiocyanate, benzyl isothiocyanate, ethyl isothiocyanate and 3-methylthiopropyl isothiocyanate (all from Sigma-Aldrich) were dissolved in pure ethanol to form 1.0% of working solution of each. A total of 5 ml PBS buffer containing 200 ppm of H2S in a headspace vial (22 ml volume) was mixed with 0.125, 0.25, 0.5 and 1 mg of each isothiocyanate compound for 5 min at 37° C., respectively. The headspace sample was injected into the GC-SCD by an automatic sampler for VSC analysis. The reduction of headspace concentration of H2S was calculated by the formula below: […]
In view of the results pertaining to allyl isothiocyanate in Table 1, Applicants further evaluated allyl isothiocyanate in vitro for its VSC elimination effect of hydrogen sulfide (H2S). A […] headspace vial containing 5 ml of PBS solution and 200 ppm of H2S was treated with various concentrations of allyl isothiocyanate, respectively (0.25-1.0 mg). In a standard experimental protocol, a stock of hydrogen sulfide solutions were prepared by dissolving c.a. 0.10 g of sodium sulfide in a total of 10 ml phosphate buffer solution (PBS) (pH 7.4). It was further diluted in PBS to produce a working solution contained 200 ppm of H2S in buffer.

[6] = 50 ppm isothiocyanate, 200 ppm H2S
[7] = 100 ppm isothiocyanate, 200 ppm H2S
[8] = 200 ppm isothiocyanate, 200 ppm H2S

| Compound | reduces the oral malodor produced by hydrogen sulfide (H2S) [1] | % Reduction of headspace concentration (H2S) [5, 6] | Peak Area (headspace H2S) ([5]; 50 ppm isothiocyanate) | % Reduction of headspace concentration (H2S) [5, 7] | Peak Area (headspace H2S) ([5]; 100 ppm isothiocyanate) | % Reduction of headspace concentration (H2S) [5, 8] | Peak Area (headspace H2S) ([5]; 200 ppm isothiocyanate) | other results |
| --- | --- | --- | --- | --- | --- | --- | --- | --- |
| CC(O)C(=O)[O-].CC(O)C(=O)[O-].[Zn+2] (stereo not drawn) [zinc lactate] | reduces |  |  |  |  |  |  | amount of zinc salt above which H2S is reduced ([1]; in vitro): greater than 0.25 mg; H2S eliminated [2]: 98%; CH3SH eliminated [3]: 0%; reducing the headspace concentration of methyl mercaptan (CH3SH) [4]: ineffective |
| zinc hydrogen aspartate | reduces |  |  |  |  |  |  |  |
| CSCCCN=C=S [3-methylthiopropyl isothiocyanate] |  | 51% | 416687277 | 75% | 211177117 | 94.5% | 46897168 |  |
| C=CCN=C=S [Allyl isothiocyanate, allyl isothiocyanate] |  | 49% | 431713256 | 98.4% | 13651581 | 99.5% | 4266119 | Reduction of H2S ([5]; 0.25 mg allyl isothiocyanate, 5 ml PBS, 200 ppm H2S): 49.0%; Reduction of H2S ([5]; 0.5 mg allyl isothiocyanate, 5 ml PBS, 200 ppm H2S): 98.4%; Reduction of H2S ([5]; 1 mg allyl isothiocyanate, 5 ml PBS, 200 ppm H2S): 99.5%; Reduction of H2S ([5]; at 100 ppm or greater): greater than 90%; H2S eliminated [2]: 98%; CH3SH eliminated [3]: 78% |
| S=C=NCc1ccccc1 [Benzyl isothiocyanate, benzyl isothiocyanate] |  | 53% | 398519292 |  |  |  |  | % Reduction of headspace concentration (H2S) ([5]; 25 ppm isothiocyanate, 200 ppm H2S): 42%; Peak Area (headspace H2S) ([5]; 25 ppm isothiocyanate): 491908604; % Reduction of headspace concentration (H2S) ([5]; 50 ppm isothiocyanate, 200 ppm H2S, listed as benzyl isothiocyanate): greater than 50% |
| zinc ascorbate | reduces |  |  |  |  |  |  |  |
| zinc gluconate | reduces |  |  |  |  |  |  | reducing the headspace concentration of methyl mercaptan (CH3SH) [4]: ineffective |
| CCN=C=S [Ethylisothiocyanate, ethyl isothiocyanate] |  | −13% | 963110533 | 14.9% | 726258436 | 68% | 271822727 | % Reduction of headspace concentration (H2S) ([5]; 200 ppm isothiocyanate, 200 ppm H2S, listed as ethylisothiocyanate): 68% |
